# According to patent US20030143757A1, “Methods for identifying drug cores” (priority 1997, published 2003):
# Target: p38 MAP kinase (Homo sapiens, UniProt Q16539)
# Details: 1 mM each drug core, 0.2 mM p38 MAP kinase, 5° C., pD* 8.4, relaxation filter
# Method: All the spectra were acquired at 5° C. using a Bruker DMX 500 MHz NMR spectrometer. NOESY spectra were collected using 16 transients with 2048 points in ω2 and 400 points in ω1 and a mixing time of 400 ms for the drug core mixture in the absence of target and 100 ms for the drug core mixture in the presence of p38. A spin echo with an echo delay of 5 ms was used as a relaxation filter before the t1 evolution period in all experiments. Samples contained 1 mM of each drug core, 0.2 mM p38 MAP kinase, 25 mM deutero-Tris, 10% (v/v) deutero-glycerol, 20 mM deutero-dithiothreitol at pD*=8.4.
# p38 MAP kinase, sequence (Q16539 whole entry): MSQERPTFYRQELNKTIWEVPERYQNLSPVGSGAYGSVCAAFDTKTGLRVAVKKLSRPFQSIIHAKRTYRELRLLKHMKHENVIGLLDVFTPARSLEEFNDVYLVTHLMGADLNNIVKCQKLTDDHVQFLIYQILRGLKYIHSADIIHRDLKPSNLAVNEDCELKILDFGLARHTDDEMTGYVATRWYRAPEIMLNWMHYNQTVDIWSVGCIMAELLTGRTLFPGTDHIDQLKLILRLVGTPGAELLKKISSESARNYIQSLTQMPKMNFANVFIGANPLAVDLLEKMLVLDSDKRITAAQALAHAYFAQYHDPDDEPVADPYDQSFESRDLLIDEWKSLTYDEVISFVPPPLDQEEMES
compound,measurement,value
O=C(O)c1cccnc1 [nicotinic acid],binding to p38 MAP kinase by line broadening and peak height attenuation in 1D NMR,does not
